# Structures can show the parent of a compound that is named as a salt.
# What was measured:
# [1] = molecular target: T1, proMMP13(1-268) (SEQ ID NO:7) (Homo sapiens, UniProt P45452); experiment: ThermoFluor binding assay with proMMP13(1-268)
# T1 construct: 6xHis (C); made in house; host or cells: HEK293 (transient, secreted)
# Description: The ThermoFluor® (TF) assay is a 384-well plate-based binding assay that measures thermal stability of proteins (Biomol Screen 2001, 6, 429-40; Biochemistry 2005, 44, 5258-66). The experiments were carried out using instruments available from Johnson & Johnson Pharmaceutical Research & Development, LLC. TF dye used in all experiments was […] (1,8-ANS) (Invitrogen: A-47).
# Compounds were arranged in a pre-dispensed plate (Greiner Bio-one: 781280), wherein compounds were serially diluted in 100% DMSO across 11 columns within a series. Columns 12 and 24 were used as DMSO reference and contained no compound. For multiple compound concentration-response experiments, the compound aliquots (50 nL) were robotically predispensed directly into black 384-well polypropylene PCR microplates (Abgene: TF-0384/k) using a Cartesian Hummingbird liquid handler (DigiLab, Holliston, Mass.). Following compound dispense, protein and dye solutions were added to achieve the final assay volume of 3 μL. The assay solutions were overlayed with 1 μL of silicone oil (Fluka, type DC 200: 85411) to prevent evaporation.
# Assay plates were robotically loaded onto a thermostatically controlled PCR-type thermal block and then heated from 40 to 90° C. at a ramp-rate of 1° C./min for all experiments. Fluorescence was measured by continuous illumination with UV light (Hamamatsu LC6) supplied via fiber optics and filtered through a band-pass filter (380-400 nm; >60D cutoff). Fluorescence emission of the entire 384-well plate was detected by measuring light intensity using a CCD camera (Sensys, Roper Scientific) filtered to detect 500±25 nm, resulting in simultaneous and independent readings of all 384 wells. A single image with 20-sec exposure time was collected at each temperature, and the sum of the pixel intensity in a given area of the assay plate was recorded vs temperature and fit to standard equations to yield the Tm (J Biomol Screen 2001, 6, 429-40).
# Thermodynamic parameters necessary for fitting compound binding for each proMMP were estimated by differential scanning calorimetry (DSC) and from ThermoFluor® data. The heat capacity of unfolding for each protein was estimated from the molecular weight and from ThermoFluor® dosing data.
# ThermoFluor® with proMMP13(1-268) (SEQ ID NO: 7)
# The proMMP13(1-268) (SEQ ID NO:7) protein sample preparations included a desalting buffer exchange step via a PD-10 gravity column (GE Healthcare). The desalting buffer exchange was performed prior to diluting the protein to the final assay concentration of 3.5 μM. The concentration of proMMP13(1-268) (SEQ ID NO:7) was estimated spectrophotometrically based on a calculated extinction coefficient of ε280=37000 M^−1 cm^−1, a calculated molecular weight of 30.8 kDa, and calculated pI of 5.33. ThermoFluor® reference conditions were defined as follows: 100 μg/mL proMMP13(1-268) (SEQ ID NO:7), 25 μM 1,8-ANS, pH 7.0 Buffer (50 mM HEPES pH 7.0, 100 mM NaCl, 0.001% Tween-20, 2.5 mM MgCl2, 300 μM CaCl2). The thermodynamic parameters for proMMP13(1-268) (SEQ ID NO:7) are as follows: Tm (° C.)=67 (+/−0.1), ΔUH(Tm)) (cal mol^−1)=107000(+/−5000), ΔUSTm (cal mol^−1 K^−1)=318, ΔUCp (cal mol^−1 K^−1)=2600.
# [2] = molecular target: T2, proMMP9(67-444;ΔFnII) (SEQ ID NO:5) (Homo sapiens, UniProt P14780, DEL216-390); experiment: ThermoFluor binding assay with proMMP9(67-444;ΔFnII)
# T2 construct: start methionine (N); made in house; host or cells: E. coli BL21(DE3) RIL
# T2 sequence (P14780 with tags, fused parts or gaps DEL216-390): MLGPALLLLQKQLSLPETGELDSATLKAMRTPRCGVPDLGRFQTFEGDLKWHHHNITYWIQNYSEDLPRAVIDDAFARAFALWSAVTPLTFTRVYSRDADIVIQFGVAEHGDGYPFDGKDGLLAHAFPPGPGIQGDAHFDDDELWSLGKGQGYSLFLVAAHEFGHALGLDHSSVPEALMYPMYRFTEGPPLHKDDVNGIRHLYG
# How it was run: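 Thermal shift of 3.5 μM proMMP9(67-444;ΔFnII), desalted beforehand, with 50 μM 1,8-ANS in 50 mM HEPES pH 7.0, 100 mM NaCl, 2.5 mM MgCl2, 300 μM CaCl2, 0.001% Tween-20. Heated 40–90 °C at 1 °C/min, fluorescence read at 500 nm; binding fitted from Tm shifts using DSC- and ThermoFluor-derived unfolding parameters.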
# [3] = molecular target: T3, full-length proMMP9(1-707) activation by catalytic MMP3 (Homo sapiens, UniProt P14780, R574P); experiment: proMMP9/MMP3 P126 Activation Assay; format: biochemical
# T3 construct: made in house; host or cells: proMMP9: HEK293 (secreted); MMP3: E. coli
# T3 sequence (P14780 20-707 R574P): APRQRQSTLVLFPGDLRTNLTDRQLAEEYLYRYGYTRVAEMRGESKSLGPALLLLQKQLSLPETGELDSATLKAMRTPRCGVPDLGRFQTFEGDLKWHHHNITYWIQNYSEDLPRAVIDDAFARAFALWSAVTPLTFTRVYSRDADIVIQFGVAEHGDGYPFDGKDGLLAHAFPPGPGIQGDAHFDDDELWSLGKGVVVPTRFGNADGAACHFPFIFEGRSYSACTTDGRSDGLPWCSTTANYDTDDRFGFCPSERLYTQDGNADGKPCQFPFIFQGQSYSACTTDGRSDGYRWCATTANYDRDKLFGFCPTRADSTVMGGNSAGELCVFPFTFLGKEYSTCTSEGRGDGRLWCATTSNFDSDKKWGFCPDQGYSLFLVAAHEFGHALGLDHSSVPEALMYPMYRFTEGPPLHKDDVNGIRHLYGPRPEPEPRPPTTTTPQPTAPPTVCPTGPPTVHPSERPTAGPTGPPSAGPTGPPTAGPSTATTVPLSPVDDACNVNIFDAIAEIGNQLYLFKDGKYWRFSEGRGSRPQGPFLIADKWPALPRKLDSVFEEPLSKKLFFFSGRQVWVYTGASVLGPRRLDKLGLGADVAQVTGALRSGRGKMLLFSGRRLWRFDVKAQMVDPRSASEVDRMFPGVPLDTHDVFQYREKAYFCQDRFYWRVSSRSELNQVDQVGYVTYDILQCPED
# Description: proMMP9/MMP3 P126 Activation Assay
# The reaction volume was 50 μL. […] Reactivity of residual MMP3 towards P-126 substrate was minimal under these conditions.
# [4] = molecular target: T4, proMMP9(20-445;ΔFnII) (SEQ ID NO:6) (Homo sapiens, UniProt P14780, DEL216-390); experiment: ThermoFluor binding assay with proMMP9(20-445;ΔFnII)
# T4 construct: start methionine (N); made in house; host or cells: E. coli BL21(DE3) RIL
# T4 sequence (P14780 with tags, fused parts or gaps DEL216-390): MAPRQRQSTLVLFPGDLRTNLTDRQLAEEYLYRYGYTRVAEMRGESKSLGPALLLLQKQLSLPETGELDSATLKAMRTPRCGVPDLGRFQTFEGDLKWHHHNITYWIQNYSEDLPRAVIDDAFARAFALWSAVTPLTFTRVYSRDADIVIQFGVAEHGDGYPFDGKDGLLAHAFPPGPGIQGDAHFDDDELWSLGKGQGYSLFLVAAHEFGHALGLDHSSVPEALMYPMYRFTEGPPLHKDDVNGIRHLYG
# How it was run: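 Protein thermal stability was measured with 2.8 μM proMMP9(20-445;ΔFnII) and 50 μM 1,8-ANS in 50 mM HEPES pH 7.0, 100 mM NaCl, 0.001% Tween-20, 2.5 mM MgCl2, 300 μM CaCl2, across serial compound dilutions. Samples were heated 40–90° C at 1° C/min with fluorescence read at 500 nm. Tm was fitted, and binding was derived from thermodynamic parameters obtained by DSC and ThermoFluor.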
Compound,Kd [1] [nM],Kd [2] [nM],IC50 [3] [nM],Kd [4] [nM]
"CC(C)Oc1ccc(C(N)=O)cc1Nc1nc2c(ccc3nc(N)sc32)s1 [Example 5, 3-(2-Amino-benzo[1,2-d;3,4-d′]bisthiazol-7-ylamino)-4-isopropoxy-benzamide.TFA]",730,410,920,320
"COc1ccc(OC)c(Nc2nc3c(ccc4nc(N)sc43)s2)c1 [Example 8, N^7-(2,5-Dimethoxy-phenyl)-benzo[1,2-d;3,4-d′]-bisthiazole-2,7-diamine.TFA]",1800,680,1200,3100
"CC(C)Oc1ccccc1Nc1nc2c(ccc3nc(N)sc32)s1 [Example 9, N^7-(2-Isopropoxy-phenyl)-benzo[1,2-d;3,4-d′]-bisthiazole-2,7-diamine.TFA]",18000,4400,10000,27000
"CC(C)Oc1ccc(C(=O)O)cc1Nc1nc2c(ccc3[nH]c(N)nc32)s1 [Example 10, 3-(7-Amino-6H-imidazo[4′,5′:3,4]benzo[2,1-d]thiazol-2-ylamino)-4-isopropoxy-benzoic acid.HCl]",710,91,130,940
"Cc1nc2c(s1)-c1nc(Nc3cc(C(N)=O)ccc3OC(C)C)sc1CC2 [Example 12, 4-Isopropoxy-3-(2-methyl-4,5-dihydro-benzo[1,2-d;3,4-d′]-bisthiazol-7-ylamino)-benzamide.TFA]",6500,3800,1100,1700
"Cc1nc2ccc3sc(Nc4cc(C(N)=O)ccc4OC(C)C)nc3c2s1 [Example 13, 4-Isopropoxy-3-(2-methyl-benzo[1,2-d;3,4-d′]bisthiazol-7-ylamino)-benzamide.TFA]",2200,390,420,230
"COc1ccccc1Nc1nc2c(s1)CCCc1nc(N)sc1-2 [Example 14, N^8-(2-Methoxy-phenyl)-5,6-dihydro-4H-1,7-dithia-3,9-diaza-cyclopenta[e]azulene-2,8-diamine.TFA]",20000,550,1100,2400
"CC(=O)Nc1nc2c(ccc3sc(Nc4cc(C(N)=O)ccc4OC(C)C)nc32)[nH]1 [Example 18, 3-(7-Acetylamino-6H-imidazo[4′,5′:3,4]-benzo[2,1-d]thiazol-2-ylamino)-4-isopropoxy-benzamide.HCl]",3400,550,630,880
"Cc1nc2c(ccc3sc(Nc4cc(C(N)=O)ccc4OC(C)C)nc32)[nH]1 [Example 19, 4-Isopropoxy-3-(7-methyl-6H-imidazo[4′,5′:3,4]benzo[2,1-d]thiazol-2-ylamino)-benzamide.HCl]",2200,380,350,460
"Cc1nc2c(ccc3sc(Nc4cc(C(=O)O)ccc4OC(C)C)nc32)[nH]1 [Example 20, 4-Isopropoxy-3-(7-methyl-6H-imidazo[4′,5′:3,4]-benzo[2,1-d]thiazol-2-ylamino)-benzoic acid.HCl]",1900,190,240,1400
"CC(C)Oc1ccc(C(N)=O)cc1Nc1nc2c(ccc3[nH]c(CO)nc32)s1 [Example 21, 3-(7-Hydroxymethyl-6H-imidazo[4′,5′:3,4]-benzo[2,1-d]thiazol-2-ylamino)-4-isopropoxy-benzamide.HCl]",3500,330,500,410
"CC(C)Oc1ccc(C(N)=O)cc1Nc1nc2c(ccc3[nH]c(=O)[nH]c32)s1 [Example 23, 4-Isopropoxy-3-(7-oxo-7,8-dihydro-6H-imidazo[4′,5′:3,4]benzo[2,1-d]thiazol-2-ylamino)-benzamide.TFA]",3000,970,840,590
"Cc1nc2ccc3sc(Nc4cc(C(=O)O)ccc4OC(C)C)nc3c2s1 [Example 24, 4-Isopropoxy-3-(2-methyl-benzo[1,2-d;3,4-d′]bisthiazol-7-ylamino)-benzoic acid.HCl]",8400,520,380,1200

# Second part, the compound after the results:
Kd [1] [nM],Kd [2] [nM],IC50 [3] [nM],Kd [4] [nM],Compound
7000,810,2800,3600,"COc1ccccc1Nc1nc2c(ccc3sc(N)nc32)s1 [Example 1, N^7-(2-Methoxy-phenyl)-benzo[2,1-d;3,4-d′]-bisthiazole-2,7-<diamine.TFA]"
8700,410,1300,2200,"COc1ccccc1Nc1nc2c(ccc3nc(N)sc32)s1 [Example 2, N^7-(2-Methoxy-phenyl)-benzo[1,2-d;3,4-d′]-bisthiazole-2,7-diamine.TFA]"
11000,290,660,2400,"COc1ccccc1Nc1nc2c(ccc3[nH]c(N)nc32)s1 [Example 6, N^2-(2-Methoxy-phenyl)-6H-imidazo[4′,5′:3,4]benzo[2,1-d]thiazole-2,7-diamine]"
470,720,250,1300,"CC(C)Oc1ccc(C(N)=O)cc1Nc1nc2c(ccc3[nH]c(N)nc32)s1 [Example 11, 3-(7-Amino-6H-imidazo[4′,5′:3,4]benzo[2,1-d]thiazol-2-ylamino)-4-isopropoxy-benzamide.HCl]"
33000,9900,3500,> 95000,"Nc1nc2c(ccc3sc(Nc4cccc(C(=O)O)c4)nc32)[nH]1 [Example 15, 3-(7-Amino-6H-imidazo[4′,5′:3,4]benzo[2,1-d]thiazol-2-ylamino)-benzoic acid.TFA]"
19000,990,890,5000,"COc1ccccc1Nc1nc2c(ccc3[nH]c(NC(C)=O)nc32)s1 [Example 16, N-[2-(2-Methoxy-phenylamino)-6H-imidazo[4′,5′:3,4]benzo[2,1-d]thiazol-7-yl]-acetamide.TFA]"
